# Tested on: Thiobacillus ferrooxidans
# Experiment: Bacterial dissolution of pyrite layers with Thiobacillus ferrooxidans in the presence of cysteine
# Settings: for lag phase of bacterial pyrite dissolution: pH 1.6; for pyrite corrosion level (or dissolution rate): pH 1.6, S^o-FeS2 pyrite layer 100 nm, after 10-11 days
# Description: Each time, 1 cm^3 of pyrite layers 100 nm in thickness (referred to as S^o-FeS2), prepared according to Example 1 using elemental sulfur as precursor, was added with 300 μl of aqueous solutions or suspensions of Thiobacillus ferrooxidans cells and cysteine at concentrations of from 8×10^−2 to 8×10^−5 M in an in situ pyrite culture chamber. The pH value of the solutions was adjusted to 1.6 using Tuovinen buffer (for 1 liter: KH2PO4=0.4 g, MgSO4.7H2O=0.4 g, (NH4)2SO4=0.4 g, […], with no iron(II) being added) [cf., Tuovinen and Kelly, Arch. Mikrobiol. 88, 285-298 (1973)].
# FIG. 1 is a plot of the pyrite corrosion level (or dissolution rate) [%] as a function of time [days] for the various solutions.
smiles,measurement,setting,value
N[C@@H](CS)C(=O)O [cysteine],lag phase of bacterial pyrite dissolution,8×10^−4 M cysteine in solution,no longer occurs
same,pyrite corrosion level (or dissolution rate),8×10^−4 M cysteine in solution,100%
same,lag phase of bacterial pyrite dissolution,8×10^−5 M cysteine in solution,no longer occurs
same,pyrite corrosion level (or dissolution rate),8×10^−5 M cysteine in solution,100%

# Source: patent US6767522B1, “Method for leaching sulfide-containing materials with microorganisms and use of sulphur-containing amino acids in leaching with microorganisms” (Hahn-Meitner-Institut Berlin GmbH, priority 1998, dated 2004)
